Two molecules from ChEMBL document CHEMBL2074202, “Biliary excretion of pravastatin in rats: contribution of the excretion pathway mediated by canalicular multispecific organic anion transporter” (Drug Metab Dispos, 1997) can be followed below.

Data set [1] has as its target ATP-binding cassette sub-family C member 2 (Rattus norvegicus, UniProt Q63120). Put plainly: TP_TRANSPORTER: inhibition of DNP-SG uptake in bile canalicular membrane vesicles from SD rat. The class given is functional, cell membranes, Sprague-Dawley, Bile canalicular membrane vesicle.
Substrate in data set [2]: CC[C@H](C)C(=O)O[C@H]1C[C@H](O)C=C2C=C[C@H](C)[C@H](CC[C@@H](O)C[C@@H](O)CC(=O)O)[C@H]21
Put plainly: TP_TRANSPORTER: uptake in bile canalicular membrane vesicles from SD rat. Type of data set: functional, cell membranes, Sprague-Dawley, Bile canalicular membrane vesicle.

As a reminder, the Ki is the equilibrium dissociation constant of an inhibitor or competing ligand from its target. The low end stands for tighter binding, the high end for weaker binding. In the case of `CC[C@H](C)C(=O)O[C@H]1C[C@H](O)C=C2C=C[C@H](C)[C@H](CC[C@@H](O)C[C@@H](O)CC(=O)O)[C@H]21` [PRAVASTATIN], in data set [1], the affinity, expressed as Ki, was 172 µM.

B1: ATP-binding cassette sub-family C member 2 (Rattus norvegicus) (protein)
chain: MDKFCNSTFWDLSLLESPEADLPLCFEQTVLVWIPLGFLWLLAPWQLYSVYRSRTKRSSITKFYLAKQVFVVFLLILAAIDLSLALTEDTGQATVPPVRYTNPILYLCTWLLVLAVQHSRQWCVRKNSWFLSLFWILSVLCGVFQFQTLIRALLKDSKSNMAYSYLFFVSYGFQIVLLILTAFSGPSDSTQTPSVTASFLSSITFSWYDRTVLKGYKHPLTLEDVWDIDEGFKTRSVTSKFEAAMTKDLQKARQAFQRRLQKSQRKPEATLHGLNKKQSQSQDVLVLEEAKKKSEKTTKDYPKSWLIKSLFKTFHVVILKSFILKLIHDLLVFLNPQLLKLLIGFVKSSNSYVWFGYICAILMFAVTLIQSFCLQSYFQHCFVLGMCVRTTVMSSIYKKALTLSNLARKQYTIGETVNLMSVDSQKLMDATNYMQLVWSSVIQITLSIFFLWRELGPSILAGVGVMVLLIPVNGVLATKIRNIQVQNMKNKDKRLKIMNEILSGIKILKYFAWEPSFQEQVQGIRKKELKNLLRFGQLQSLLIFILQITPILVSVVTFSVYVLVDSANVLNAEKAFTSITLFNILRFPLSMLPMVTSSILQASVSVDRLERYLGGDDLDTSAIRRVSNFDKAVKFSEASFTWDPDLEATIQDVNLDIKPGQLVAVVGTVGSGKSSLVSAMLGEMENVHGHITIQGSTAYVPQQSWIQNGTIKDNILFGSEYNEKKYQQVLKACALLPDLEILPGGDMAEIGEKGINLSGGQKQRVSLARAAYQDADIYILDDPLSAVDAHVGKHIFNKVVGPNGLLAGKTRIFVTHGIHFLPQVDEIVVLGKGTILEKGSYRDLLDKKGVFARNWKTFMKHSGPEGEATVNNDSEAEDDDDGLIPTMEEIPEDAASLAMRRENSLRRTLSRSSRSSSRRGKSLKNSLKIKNVNVLKEKEKEVEGQKLIKKEFVETGKVKFSIYLKYLQAVGWWSILFIILFYGLNNVAFIGSNLWLSAWTSDSDNLNGTNNSSSHRDMRIGVFGALGLAQGICLLISTLWSIYACRNASKALHGQLLTNILRAPMRFFDTTPTGRIVNRFSGDISTVDDLLPQTLRSWMMCFFGIAGTLVMICMATPVFAIIIIPLSILYISVQVFYVATSRQLRRLDSVTKSPIYSHFSETVTGLPIIRAFEHQQRFLAWNEKQIDINQKCVFSWITSNRWLAIRLELVGNLVVFCSALLLVIYRKTLTGDVVGFVLSNALNITQTLNWLVRMTSEAETNIVAVERISEYINVENEAPWVTDKRPPADWPRHGEIQFNNYQVRYRPELDLVLKGITCNIKSGEKVGVVGRTGAGKSSLTNCLFRILESAGGQIIIDGIDVASIGLHDLRERLTIIPQDPILFSGSLRMNLDPFNKYSDEEVWRALELAHLRSFVSGLQLGLLSEVTEGGDNLSIGQRQLLCLGRAVLRKSKILVLDEATAAVDLETDSLIQTTIRKEFSQCTVITIAHRLHTIMDSDKIMVLDNGKIVEYGSPEELLSNRGSFYLMAKEAGIENVNHTEL
In general, Km refers to the concentration of substrate that gives half-maximal velocity. Take B1: the Km in data set [2] turned out to be 223 µM.
